One assay concerns C. albicans. In words: Antifungal Activity Assay (broth microtiter MIC), C. albicans. The settings on record: Candida albicans, ATCC90028, 48 h. In kind it is cell-based, Candida albicans. Summed up:
(§1)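 Broth microdilution per CLSI M27-A3 in RPMI 1640+MOPS, inoculum 2.5×10^3 CFU/mL final from overnight Sabouraud dextrose agar cultures at 35° C. Compounds diluted from DMSO stock to 128 μg/mL in water. MIC read visually versus growth control at 48 h.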

For another assay, the system named is Diplodia maydis (Dm). In words: Growth inhibition assay of fungal pathogens, Dm. In kind it is cell-based. Particulars: Stenocarpella maydis, 48 h, growth inhibition at 48 hours vs 2% DMSO control. In a few lines: (§2)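 Pathogen growth in 17% V8 broth is measured by OD600 at 24 and 48 hours, after blank subtraction, in the presence of compound at 50, 10 and 2 ppm or 2, 0.4 and 0.08 ppm. Inhibition in percent comes from 48-hour readings against the DMSO control.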

For assay [1], the system named is Fusarium moniliforme (Fm). In words: Growth inhibition assay of fungal pathogens, Fm. In kind it is cell-based. The settings on record: Fusarium verticillioides, 48 h, read-out: Concentration at 90% Inhibition Fm. In a few lines: as §2
The test system of a further assay is Botrtyis cinerea (Bc). In words: Growth inhibition assay of fungal pathogens, Bc. In kind it is cell-based. The settings on record: 48 h, growth inhibition at 48 hours vs 2% DMSO control. In a few lines: as §2
Assay [2] concerns Phytophthora capsici (Pc). As to the kind of experiment: Growth inhibition assay of fungal pathogens, Pc. In kind it is cell-based. Particulars: 48 h. In a few lines:
as §2

The subject of assay [3] is Collectotrichum graminicola (Cg). In words: Growth inhibition assay of fungal pathogens, Cg. In kind it is cell-based. The settings on record: 48 h, growth inhibition at 48 hours vs 2% DMSO control. Summed up: as §2
Another assay relates to Rhizoctonia solani (Rs). In words: Growth inhibition assay of fungal pathogens, Rs. In kind it is cell-based. The settings on record: 48 h.
In a further assay the target is human (hACC2) (Homo sapiens, UniProt O00763). As to the kind of experiment: In vitro ACC inhibition assay (ADP-Glo), hACC2. In kind it is biochemical. Particulars: Table 2b, additional results, 5 nM ACC2, 20 μM ATP, 20 μM acetyl-CoA. As for the experimental part:
The detailed procedure is as follows. […] 10 μL ADP glo reagent was added. […] 20 μL kinase detection reagent was added.

A further assay deals with Septoria tritici (St). As to the kind of experiment: Growth inhibition assay of fungal pathogens, St. In kind it is cell-based. The settings on record: Zymoseptoria tritici, 48 h, growth inhibition at 48 hours vs 2% DMSO control. In a few lines:
as §2

The subject of the next assay is C. krusei. In words: Antifungal Activity Assay (broth microtiter MIC), C. krusei. The settings on record: Pichia kudriavzevii, ATCC6258, 48 h. In kind it is cell-based, Candida krusei. In a few lines: as §1
For a further assay, the target named is fungal (fACC2) (UniProt Q00955). Particulars: read-out: fACC2 (in vitro ACC2 Inhibition Assay, IC50); Table 2b, additional results; ADP-Glo, 5 nM ACC2, 20 μM ATP, 20 μM acetyl-CoA. On the technique in general: In ADP-Glo the light output rises with the ADP produced.
Assay [4] has as its system Fusarium virguliforme (Fv). As to the kind of experiment: Growth inhibition assay of fungal pathogens, Fv. The settings on record: 48 h. In kind it is cell-based. Summed up:
as §2

For the next assay, the system named is C. parapsilosis. As to the kind of experiment: Antifungal Activity Assay (broth microtiter MIC), C. parapsilosis. In kind it is cell-based, Candida parapsilosis. The settings on record: Lodderomyces parapsilosis, ATCC22019, 48 h. Summed up: as §1
[5] abbreviates: Table 3b (additional results), ATCC 90028, 3 replicates, MIC recorded at 48 h, read-out: MIC, C. albicans ATCC 90028.
[6] abbreviates: Diplodia maydis, read-out: Concentration at 90% Inhibition Dm.
Setting [7] is: Fusarium moniliforme, growth inhibition at 48 hours vs 2% DMSO control.
Setting [8] is: Botrtyis cinerea, read-out: Concentration at 90% Inhibition Bc.
Where [9] appears, read: growth inhibition at 48 hours vs 2% DMSO control, read-out: Concentration at 90% Inhibition Pc.
Where [10] appears, read: Collectotrichum graminicola, read-out: Concentration at 90% Inhibition Cg.
The mark [11] stands for this setting: mycelial plugs, growth inhibition at 48 hours vs 2% DMSO control, read-out: Concentration at 90% Inhibition Rs.
[12] abbreviates: Septoria tritici, read-out: Concentration at 90% Inhibition St.
The mark [13] stands for this setting: Table 3b (additional results), ATCC 6258, 3 replicates, MIC recorded at 48 h, read-out: MIC, C. krusei ATCC 6258.
Where [14] appears, read: growth inhibition at 48 hours vs 2% DMSO control, read-out: Concentration at 90% Inhibition Fv.
The mark [15] stands for this setting: Table 3b (additional results), ATCC 22019, 3 replicates, MIC recorded at 48 h, read-out: MIC, C. parapsilosis ATCC 22019.

Drawing on patent publication US10800791B2, “Triazole ACC inhibitors and uses thereof” (Gilead Apollo, LLC, priority 2015, dated 2020), this text covers MIC, IC90 and IC50 for five compounds.

Values after ≈ are worked out from the molar mass of the structure shown. Where two headings read alike, the source gives them in different places.

Sequence of human (hACC2) (O00763 whole entry): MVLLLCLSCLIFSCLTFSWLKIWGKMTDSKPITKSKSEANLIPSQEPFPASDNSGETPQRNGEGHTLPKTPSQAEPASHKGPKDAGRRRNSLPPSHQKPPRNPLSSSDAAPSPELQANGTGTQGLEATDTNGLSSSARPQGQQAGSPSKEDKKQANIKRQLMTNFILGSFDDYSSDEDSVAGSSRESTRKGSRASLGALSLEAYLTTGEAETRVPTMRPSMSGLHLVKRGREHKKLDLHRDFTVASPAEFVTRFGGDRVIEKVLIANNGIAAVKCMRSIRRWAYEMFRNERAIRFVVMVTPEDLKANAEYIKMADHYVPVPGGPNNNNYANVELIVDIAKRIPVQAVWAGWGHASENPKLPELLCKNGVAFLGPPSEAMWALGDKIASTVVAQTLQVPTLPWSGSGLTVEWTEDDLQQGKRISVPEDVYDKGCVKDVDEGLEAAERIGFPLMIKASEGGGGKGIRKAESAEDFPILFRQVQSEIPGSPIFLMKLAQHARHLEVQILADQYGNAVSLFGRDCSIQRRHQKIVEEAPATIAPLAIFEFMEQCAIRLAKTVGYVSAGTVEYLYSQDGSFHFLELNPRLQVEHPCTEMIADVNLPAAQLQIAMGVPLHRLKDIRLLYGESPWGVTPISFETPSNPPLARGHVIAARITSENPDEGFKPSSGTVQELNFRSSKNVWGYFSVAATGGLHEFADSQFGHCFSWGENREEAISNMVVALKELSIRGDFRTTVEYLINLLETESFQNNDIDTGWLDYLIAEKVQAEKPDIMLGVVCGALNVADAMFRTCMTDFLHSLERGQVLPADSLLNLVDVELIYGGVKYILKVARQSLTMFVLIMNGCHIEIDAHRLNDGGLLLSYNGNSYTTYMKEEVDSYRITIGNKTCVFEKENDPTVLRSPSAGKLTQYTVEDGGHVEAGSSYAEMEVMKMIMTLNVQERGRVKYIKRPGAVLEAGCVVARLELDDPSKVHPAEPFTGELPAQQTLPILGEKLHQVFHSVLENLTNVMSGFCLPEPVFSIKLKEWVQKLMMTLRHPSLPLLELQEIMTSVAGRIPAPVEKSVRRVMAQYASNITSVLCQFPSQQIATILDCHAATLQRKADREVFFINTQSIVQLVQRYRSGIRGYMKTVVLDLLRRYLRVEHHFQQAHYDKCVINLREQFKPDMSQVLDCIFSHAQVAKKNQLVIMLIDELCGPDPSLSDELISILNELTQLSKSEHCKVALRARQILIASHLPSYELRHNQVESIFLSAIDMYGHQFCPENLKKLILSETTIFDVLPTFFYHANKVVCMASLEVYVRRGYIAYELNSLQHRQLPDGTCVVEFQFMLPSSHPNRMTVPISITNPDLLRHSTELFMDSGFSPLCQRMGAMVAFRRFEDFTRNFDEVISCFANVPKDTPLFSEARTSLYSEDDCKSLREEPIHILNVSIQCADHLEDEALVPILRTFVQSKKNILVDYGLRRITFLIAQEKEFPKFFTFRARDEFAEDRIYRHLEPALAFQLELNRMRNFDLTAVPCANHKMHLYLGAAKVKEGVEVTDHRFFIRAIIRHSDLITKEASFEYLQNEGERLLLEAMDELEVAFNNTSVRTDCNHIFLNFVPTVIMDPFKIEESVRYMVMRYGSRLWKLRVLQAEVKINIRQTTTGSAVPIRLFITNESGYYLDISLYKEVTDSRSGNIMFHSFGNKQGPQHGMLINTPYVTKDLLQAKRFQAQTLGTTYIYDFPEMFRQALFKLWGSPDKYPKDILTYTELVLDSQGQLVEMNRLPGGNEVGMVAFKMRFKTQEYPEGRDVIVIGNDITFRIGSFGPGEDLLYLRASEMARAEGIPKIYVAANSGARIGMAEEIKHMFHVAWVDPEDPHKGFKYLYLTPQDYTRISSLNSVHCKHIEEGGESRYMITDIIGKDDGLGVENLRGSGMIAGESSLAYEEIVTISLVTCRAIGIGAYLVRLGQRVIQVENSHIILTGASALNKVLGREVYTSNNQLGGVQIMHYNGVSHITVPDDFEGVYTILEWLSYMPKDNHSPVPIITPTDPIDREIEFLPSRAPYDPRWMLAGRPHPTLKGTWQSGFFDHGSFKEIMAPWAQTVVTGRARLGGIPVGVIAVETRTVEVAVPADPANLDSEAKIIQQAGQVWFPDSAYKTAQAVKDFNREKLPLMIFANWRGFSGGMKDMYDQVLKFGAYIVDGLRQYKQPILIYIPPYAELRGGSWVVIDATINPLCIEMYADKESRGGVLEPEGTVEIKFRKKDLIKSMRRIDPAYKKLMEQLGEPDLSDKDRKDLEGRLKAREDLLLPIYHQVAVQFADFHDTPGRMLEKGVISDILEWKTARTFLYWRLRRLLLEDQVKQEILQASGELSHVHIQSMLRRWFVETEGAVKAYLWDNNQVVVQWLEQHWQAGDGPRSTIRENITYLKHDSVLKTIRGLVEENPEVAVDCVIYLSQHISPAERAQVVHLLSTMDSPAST
Sequence of fungal (fACC2) (Q00955 whole entry): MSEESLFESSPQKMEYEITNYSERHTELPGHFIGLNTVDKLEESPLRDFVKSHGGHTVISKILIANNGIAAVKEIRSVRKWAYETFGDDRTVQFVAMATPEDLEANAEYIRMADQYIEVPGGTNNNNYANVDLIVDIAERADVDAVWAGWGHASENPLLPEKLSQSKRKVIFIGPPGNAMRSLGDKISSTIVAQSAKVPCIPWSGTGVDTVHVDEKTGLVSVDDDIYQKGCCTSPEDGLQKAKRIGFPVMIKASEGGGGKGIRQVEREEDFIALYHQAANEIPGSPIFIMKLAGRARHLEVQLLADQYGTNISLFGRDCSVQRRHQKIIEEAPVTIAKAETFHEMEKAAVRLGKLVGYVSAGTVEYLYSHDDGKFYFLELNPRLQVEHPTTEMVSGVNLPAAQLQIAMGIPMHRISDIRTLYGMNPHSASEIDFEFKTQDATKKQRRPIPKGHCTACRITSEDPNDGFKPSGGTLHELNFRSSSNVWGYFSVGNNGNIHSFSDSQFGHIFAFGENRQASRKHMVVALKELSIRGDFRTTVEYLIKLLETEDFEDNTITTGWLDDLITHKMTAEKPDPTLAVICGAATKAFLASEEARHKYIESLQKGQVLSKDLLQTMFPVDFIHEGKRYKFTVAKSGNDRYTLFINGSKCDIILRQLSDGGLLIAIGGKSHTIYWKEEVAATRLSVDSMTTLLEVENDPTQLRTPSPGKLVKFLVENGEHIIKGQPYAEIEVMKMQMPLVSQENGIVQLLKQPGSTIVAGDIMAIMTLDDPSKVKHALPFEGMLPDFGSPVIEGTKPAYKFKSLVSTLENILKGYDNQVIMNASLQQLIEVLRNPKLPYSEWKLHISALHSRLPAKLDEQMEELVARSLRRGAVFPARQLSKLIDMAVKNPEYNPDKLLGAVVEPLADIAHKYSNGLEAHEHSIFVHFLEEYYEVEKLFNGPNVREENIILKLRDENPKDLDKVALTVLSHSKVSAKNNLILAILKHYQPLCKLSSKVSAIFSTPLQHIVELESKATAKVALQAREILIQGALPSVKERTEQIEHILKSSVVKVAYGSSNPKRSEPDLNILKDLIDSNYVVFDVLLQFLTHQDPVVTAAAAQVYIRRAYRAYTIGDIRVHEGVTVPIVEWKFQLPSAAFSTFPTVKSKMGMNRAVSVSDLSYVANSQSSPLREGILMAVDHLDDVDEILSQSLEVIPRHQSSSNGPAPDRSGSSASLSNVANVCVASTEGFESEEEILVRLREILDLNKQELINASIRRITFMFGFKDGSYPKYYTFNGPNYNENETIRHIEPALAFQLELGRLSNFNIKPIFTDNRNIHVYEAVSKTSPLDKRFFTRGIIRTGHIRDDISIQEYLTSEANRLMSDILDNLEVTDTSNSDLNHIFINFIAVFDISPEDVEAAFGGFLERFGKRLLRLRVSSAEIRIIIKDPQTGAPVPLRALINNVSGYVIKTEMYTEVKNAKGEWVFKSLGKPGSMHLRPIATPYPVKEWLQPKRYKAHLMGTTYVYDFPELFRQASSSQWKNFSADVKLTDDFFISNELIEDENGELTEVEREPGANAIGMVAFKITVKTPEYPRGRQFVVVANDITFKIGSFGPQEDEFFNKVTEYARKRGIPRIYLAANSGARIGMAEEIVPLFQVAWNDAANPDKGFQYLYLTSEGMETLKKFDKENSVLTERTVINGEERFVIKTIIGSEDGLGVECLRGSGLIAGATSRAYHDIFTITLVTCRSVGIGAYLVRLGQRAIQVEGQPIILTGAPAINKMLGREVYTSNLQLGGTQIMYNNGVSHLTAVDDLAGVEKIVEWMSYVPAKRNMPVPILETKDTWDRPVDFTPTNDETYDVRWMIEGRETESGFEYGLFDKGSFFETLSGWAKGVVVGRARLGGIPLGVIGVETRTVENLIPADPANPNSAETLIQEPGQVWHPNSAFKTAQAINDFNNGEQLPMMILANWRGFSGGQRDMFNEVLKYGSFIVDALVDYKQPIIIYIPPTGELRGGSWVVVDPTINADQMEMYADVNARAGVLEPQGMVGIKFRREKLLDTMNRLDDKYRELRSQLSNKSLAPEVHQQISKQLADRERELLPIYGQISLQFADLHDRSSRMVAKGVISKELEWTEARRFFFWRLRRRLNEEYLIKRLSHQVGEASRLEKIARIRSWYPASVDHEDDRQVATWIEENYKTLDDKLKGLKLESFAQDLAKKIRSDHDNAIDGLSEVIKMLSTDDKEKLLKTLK

By MIC is commonly meant the smallest concentration in the dilution series that meets the test's criterion for growth inhibition. One may read the IC50 as the concentration that inhibits the measured activity by half. Regarding `COc1ccc(Br)cc1[C@H](Cn1c(=O)n(C(C)(C)C(=O)NC(C)C)c(=O)c2c(C)c(-n3nccn3)sc21)OCC(C)(C)C#N` [Compound I-224], the MIC in the assay on C. albicans (setting [5]) fell in the range of 0.25 to 1 µg/mL (≈ 0.364 to 1.46 µM); in the assay with C. krusei (setting [13]), 0.25 to 1 µg/mL (≈ 0.364 to 1.46 µM); in the assay with C. parapsilosis (setting [15]), 1.01 to 2 µg/mL (≈ 1.47 to 2.91 µM). Besides, the IC90 in the assay with Diplodia maydis (Dm) (setting [6]) was 2 µg/mL (≈ 2.91 µM); in [1] (setting [7]) it was 0.08 µg/mL (≈ 0.117 µM); in the assay with Botrtyis cinerea (Bc) (setting [8]), 0.4 µg/mL (≈ 0.583 µM); in [2] (setting [9]), > 50 µg/mL; in assay [3] (setting [10]) it was 2 µg/mL (≈ 2.91 µM); in the assay on Rhizoctonia solani (Rs) (setting [11]), > 50 µg/mL. Further, the values for the IC90 (with Septoria tritici (St) (setting [12]); in [4] (setting [14])) were > 50 µg/mL and 0.4 µg/mL (≈ 0.583 µM), respectively. Besides, the results for the half-maximal inhibitory concentration (IC50) against human (hACC2) and at fungal (fACC2) were 5 to 10 nM and 1 to 5 nM, respectively.
Take `COc1ccc(F)cc1[C@@](O)(CO)Cn1c(=O)n(C(C)(C)C(=O)NC(C)C)c(=O)c2c(C)c(-n3nccn3)sc21` [Compound I-225]: the MIC in the assay with C. albicans (read-out: MIC, C. albicans ATCC 90028, Table 3b (additional results), 3 replicates, MIC recorded at 48 h) lay in the range of 0.25 to 1 µg/mL (≈ 0.435 to 1.74 µM); in the assay on C. krusei (read-out: MIC, C. krusei ATCC 6258, Table 3b (additional results), 3 replicates, MIC recorded at 48 h) it was 0.25 to 1 µg/mL (≈ 0.435 to 1.74 µM); in the assay with C. parapsilosis (read-out: MIC, C. parapsilosis ATCC 22019, Table 3b (additional results), 3 replicates, MIC recorded at 48 h) it was 1.01 to 2 µg/mL (≈ 1.76 to 3.48 µM). Moreover, the IC90 with Diplodia maydis (Dm) (read-out: Concentration at 90% Inhibition Dm, Diplodia maydis) stood at 0.4 µg/mL (≈ 0.696 µM); in assay [1] it was 0.08 µg/mL (≈ 0.139 µM); with Botrtyis cinerea (Bc) (read-out: Concentration at 90% Inhibition Bc, Botrtyis cinerea), 0.4 µg/mL (≈ 0.696 µM); in [2] (read-out: Concentration at 90% Inhibition Pc, Phytophthora capsici, growth inhibition at 48 hours vs 2% DMSO control), 2 µg/mL (≈ 3.48 µM); in [3] (read-out: Concentration at 90% Inhibition Cg, Collectotrichum graminicola) it was 0.08 µg/mL (≈ 0.139 µM); in the assay with Rhizoctonia solani (Rs) (read-out: Concentration at 90% Inhibition Rs, Rhizoctonia solani, mycelial plugs, growth inhibition at 48 hours vs 2% DMSO control) it was 0.08 µg/mL (≈ 0.139 µM). The IC90 with Septoria tritici (St) (read-out: Concentration at 90% Inhibition St, Septoria tritici) was > 50 µg/mL; in [4] (read-out: Concentration at 90% Inhibition Fv, Fusarium virguliforme, growth inhibition at 48 hours vs 2% DMSO control), 0.4 µg/mL (≈ 0.696 µM). Also, the half-inhibitory concentration (IC50) against human (hACC2) is 5 to 10 nM; at fungal (fACC2), 1 to 5 nM.
As for `Cc1c(-n2nccn2)sc2c1c(=O)n(C(C)(C)C(=O)NC(C)C)c(=O)n2C[C@H](OCCO)c1cc(F)ccc1O` [Compound I-226], the minimal inhibitory concentration (MIC) in the assay on C. albicans (setting [5]) was in the range of 2.01 to 4 µg/mL (≈ 3.5 to 6.96 µM); in the assay on C. krusei (setting [13]) it was 1.01 to 2 µg/mL (≈ 1.76 to 3.48 µM); with C. parapsilosis (setting [15]) it was 2.01 to 4 µg/mL (≈ 3.5 to 6.96 µM). Besides, the IC90 is > 50 µg/mL with Diplodia maydis (Dm) (setting [6]); 2 µg/mL (≈ 3.48 µM) in [1] (setting [7]); 10 µg/mL (≈ 17.4 µM) in the assay with Botrtyis cinerea (Bc) (setting [8]); > 50 µg/mL in assay [2] (setting [9]); 10 µg/mL (≈ 17.4 µM) in assay [3] (setting [10]); 2 µg/mL (≈ 3.48 µM) with Rhizoctonia solani (Rs) (setting [11]). In addition, the IC90 in the assay on Septoria tritici (St) (setting [12]) is > 50 µg/mL; in assay [4] (setting [14]), 10 µg/mL (≈ 17.4 µM). Besides, the 50% inhibitory concentration (IC50) against human (hACC2) was 10 to 40 nM; on fungal (fACC2) it was 0.3 to 1 nM.
On to `COc1ccc(Cl)cc1[C@H](Cn1c(=O)n(C(C)(C)C(=O)NC(C)C)c(=O)c2c(C)c(-n3nccn3)sc21)OCC(C)(C)C#N` [Compound I-227], for which the MIC with C. albicans (setting [5]) was 0.25 to 1 µg/mL (≈ 0.389 to 1.56 µM); in the assay with C. krusei (setting [13]) it was 0.25 to 1 µg/mL (≈ 0.389 to 1.56 µM); in the assay on C. parapsilosis (setting [15]), 1.01 to 2 µg/mL (≈ 1.57 to 3.11 µM). In addition, the IC90 is 2 µg/mL (≈ 3.11 µM) with Diplodia maydis (Dm) (setting [6]); 2 µg/mL (≈ 3.11 µM) in assay [1] (setting [7]); 2 µg/mL (≈ 3.11 µM) in the assay with Botrtyis cinerea (Bc) (setting [8]); > 50 µg/mL in assay [2] (setting [9]); 2 µg/mL (≈ 3.11 µM) in [3] (setting [10]); 2 µg/mL (≈ 3.11 µM) with Rhizoctonia solani (Rs) (setting [11]). Besides, the IC90 in the assay on Septoria tritici (St) (setting [12]) was > 50 µg/mL; in assay [4] (setting [14]), 2 µg/mL (≈ 3.11 µM). The IC50 at human (hACC2) was 10 to 40 nM; on fungal (fACC2), 1 to 5 nM.
As for `COc1ccc(F)cc1[C@](C)(Cn1c(=O)n(C(C)(C)C(=O)NC(C)C)c(=O)c2c(C)c(-n3nccn3)sc21)OCCC#N` [Compound I-229], the minimal inhibitory concentration (MIC) in the assay on C. albicans (setting [5]) lay within 0.25 to 1 µg/mL (≈ 0.409 to 1.63 µM); in the assay on C. krusei (setting [13]), 0.25 to 1 µg/mL (≈ 0.409 to 1.63 µM); in the assay on C. parapsilosis (setting [15]), 1.01 to 2 µg/mL (≈ 1.65 to 3.27 µM). The IC90 with Diplodia maydis (Dm) (setting [6]) was > 50 µg/mL; in assay [1] (setting [7]), 0.08 µg/mL (≈ 0.131 µM); in the assay with Botrtyis cinerea (Bc) (setting [8]), 0.4 µg/mL (≈ 0.654 µM); in [2] (setting [9]) it was > 50 µg/mL; in assay [3] (setting [10]) it was 2 µg/mL (≈ 3.27 µM); in the assay on Rhizoctonia solani (Rs) (setting [11]), 2 µg/mL (≈ 3.27 µM). The IC90 with Septoria tritici (St) (setting [12]) is > 50 µg/mL; in [4] (setting [14]) it was 0.4 µg/mL (≈ 0.654 µM). In addition, the half-maximal inhibitory concentration (IC50) is > 40 nM on human (hACC2) and 1 to 5 nM at fungal (fACC2).
